The target of assay [1] is T1, SARS-CoV-2 NSP3 Mac1 (Severe acute respiratory syndrome coronavirus 2, UniProt P0DTD1). Briefly: biochemical. It is filed as binding. The note with it: for IC50: HTRF ADPr-conjugated peptide displacement, read-out: IC50; for Ki: read-out: Ki***.
For assay [2], the target named is T1, SARS-CoV-2 NSP3 Mac1. Format: binding. The settings on record: for 1-BDC (PanDDA): 1 minus background density correction; for 1-BDC (PanDDA) / Refined occupancy: crystal soaking of Mac1; for Refined occupancy: ligand occupancy after refinement (phenix.refine).
In assay [3] the test system is SARS-CoV-2 NSP3 Mac1. Briefly: Overall hit call (binding in crystallographic soaking or the HTRF-based binding assay). The text has this:
Supplement pnas.2212931120.sd01.xlsx, sheet "Compound Summary" | column: HIT*

The target of assay [4] is T1, SARS-CoV-2 NSP3 Mac1. Further details: contains a conserved macrodomain enzyme (Mac1); Differential scanning fluorimetry of Mac1, maximum thermal upshift. The settings on record: maximum shift over tested concentrations; binder.
Where [5] appears, read: PanDDA event map background density correction, crystal soak, compound concentration 100 mM.
Setting [6] is: ligand modeled in the crystal structure, crystal soak, compound concentration 100 mM.
Where [7] appears, read: PanDDA event map, crystal soak, Compound_concentration 100 mM, Echo_dispense_volume 40 nl.
The mark [8] stands for this setting: crystal soak, Compound_concentration 100 mM, Echo_dispense_volume 40 nl, PanDDA run (background map) dmso_34, nohits_35 or nohits_62.
[9] abbreviates: PanDDA 1-BDC of the event, compound stock 100 mM, Echo dispense volume 80 nl.
The mark [10] stands for this setting: PanDDA event map 1-BDC, crystal soak, Compound_concentration 100 mM, PanDDA run dmso_34 or nohits_35 per dataset.
Setting [11] is: crystal soak, Compound_concentration 100 mM, Echo dispense 40 nl, PanDDA run dmso_34 or nohits_35 per dataset.
[12] abbreviates: crystal soak, compound stock 100 mM, Echo dispense volume 80 nl.
[13] abbreviates: ligand modeled, crystal soak, Compound_concentration 100 mM, Echo_dispense_volume 40 nl.

Several values for one entry are separate records, joined by “and”; a condition that tells them apart may be missing. Equal values may be shown once. Read-outs that look alike come from different tables or passages of the source.

Turning to `O=C(NCc1c(C(=O)O)[nH]c2ccccc12)c1ccc2[nH]c(O)nc2c1` [Z8539_2006], in assay [1], the IC50 came out at 15.8 µM and the Ki was determined as 13.7 µM. The compound also displayed a 1-BDC in assay [2] (setting [5]) of 0.05. In assay [2] (PanDDA event map), the “1-BDC (PanDDA)” value was found to be 0.05. Besides, the “Modeled?” value in assay [2] (setting [6]) was “TRUE”. In assay [2], this compound displayed a Refined occupancy of 10. Besides, the “HIT*” value in assay [3] is reported as “Y”.

Take `Nc1nc(N2CC3(CCC3)C(F)(C(=O)O)C2)c2c(n1)[nH]c1cc(F)ccc12` (centres unmarked) [LL123_0016]: in assay [1], the IC50 was determined as 24.5 µM. Besides, the Ki in assay [1] was 21.3 µM. For the same compound, the 1-BDC in assay [2] (setting [5]) is on record as 0.17; in assay [2] (setting [7]), 0.15. In addition, the “1-BDC (PanDDA)” value in assay [2] (PanDDA event map) was 0.17. Besides, the “PanDDA hit?” value in assay [2] (setting [8]) is listed as “TRUE”. In assay [2] (setting [6]), the “Modeled?” value was “TRUE”. Moreover, in assay [2], the Refined occupancy turned out to be 34. In addition, the “HIT*” value in assay [3] is given as “Y”.

As for `CC1C(C(=O)O)CCCN1S(=O)(=O)c1c[nH]c2ncc(Cl)cc12` (centres unmarked) [R3575, REAL300016493575], the “DSF max dTma” value in assay [4] worked out at 0.15 °C.

As for `O=C(O)C1(F)CN(c2ncnc3[nH]c4cc(F)ccc4c23)CC1C1CC1` (centres unmarked) [LL123_0032], the IC50 in assay [1] came to 41.8 µM. Also, in assay [1], the Ki came to 36.4 µM. The results for the 1-BDC in assay [2] (setting [9]), in assay [2] (setting [10]) and in assay [2] (setting [7]) were 0.14, 0.1 and 0.12, respectively. The “1-BDC (PanDDA)” value in assay [2] (PanDDA event map) turned out to be 0.12. Also, the “PanDDA hit?” value in assay [2] (setting [11]), in assay [2] (setting [8]) and in assay [2] (setting [12]) was “TRUE” throughout. Moreover, the “Modeled?” value in assay [2] (setting [13]) is “TRUE”. The compound also came in with a Refined occupancy in assay [2] of 24. In assay [3], the “HIT*” value is reported as “Y”.

On to `CC1(C(=O)O)CCN(C(=O)Cc2c[nH]c3nccc(Cl)c23)C1` (centres unmarked) [F4848, FRESH00014134848], for which the “DSF max dTma” value in assay [4] worked out at 0.07 °C.

Turning to `O=C(O)CCC1CN(c2ncnc3[nH]c4cc(F)ccc4c23)CCO1` (centres unmarked) [LL114_0041], the IC50 in assay [1] came out at 69.2 µM. Further, in assay [1], the Ki came out at 60.2 µM. Further, the 1-BDC was 0.15 in assay [2] (setting [9]), 0.15 in assay [2] (setting [10]) and 0.16 in assay [2] (setting [7]). Moreover, the “1-BDC (PanDDA)” value in assay [2] (PanDDA event map) is 0.16. Further, the “PanDDA hit?” value in assay [2] (setting [11]), in assay [2] (setting [8]) and in assay [2] (setting [12]) was “TRUE” in each case. Besides, the “Modeled?” value in assay [2] (setting [13]) is on record as “TRUE”. The compound also showed a Refined occupancy in assay [2] of 32. Moreover, the “HIT*” value in assay [3] is reported as “Y”.

Regarding `O=C(Cc1ccc(-n2cccn2)cc1)OCC1CCCNC1=O` (centres unmarked) [Z5505, ZINC000835985505], in assay [4], the “DSF max dTma” value came out at 0.16 °C.

Take `O=C(NC1c2cccc(O)c2CC1C(=O)O)c1ccc2[nH]ccc2c1` (centres unmarked) [Z8539_2004]: in assay [1], the IC50 worked out at 7.2 µM and the Ki was 6.3 µM. Besides, the 1-BDC in assay [2] (setting [5]) is 0.41 and 0.22. The “1-BDC (PanDDA)” value in assay [2] (PanDDA event map) is given as 0.22. For the same compound, the “Modeled?” value in assay [2] (setting [6]) is reported as “TRUE”. The compound further returned a Refined occupancy in assay [2] of 44. The “HIT*” value in assay [3] is on record as “Y”.

`O=C1NCCCC1Nc1ncnc(-c2ccccc2)n1` (centres unmarked) [Z9020, ZINC000884519020]: the “DSF max dTma” value in assay [4] was determined as 1.01 °C.

Regarding `c1csc(CC2CCN(c3ncnc4[nH]ccc34)C2)n1` (centres unmarked) [Z6891, ZINC000897286891], the “DSF max dTma” value in assay [4] was 0.15 °C.

Take `Cl.O=C(O)C1CN(c2ncnc3[nH]c4cc(F)ccc4c23)CCO1` (centres unmarked) [LL114_0033]: in assay [1], the IC50 was found to be 40.4 µM. For the same compound, the Ki in assay [1] came to 35.2 µM. Besides, the 1-BDC is recorded as 0.15 in assay [2] (PanDDA 1-BDC of the event, compound stock 100 mM, Echo dispense volume 40 nl) and 0.15 in assay [2] (setting [10]). Further, the “1-BDC (PanDDA)” value in assay [2] (PanDDA event map) turned out to be 0.15. The “PanDDA hit?” value was “TRUE” in assay [2] (setting [11]) and “TRUE” in assay [2] (crystal soak, compound stock 100 mM, Echo dispense volume 40 nl). The “Modeled?” value in assay [2] (ligand modeled in structure, compound stock 100 mM, Echo dispense volume 40 nl) is “TRUE”. Also, in assay [2], the Refined occupancy stood at 30. Also, in assay [3], the “HIT*” value is recorded as “Y”.

Usually IC50 stands for the concentration that gives 50% inhibition. By Ki is commonly meant a measure of affinity in units of concentration, obtained from inhibition or displacement.

Values taken from publication PMC9926234, “Iterative computational design and crystallographic screening identifies potent inhibitors targeting the Nsp3 macrodomain of SARS-CoV-2” (Proceedings of the National Academy of Sciences of the …, 2023).
